In PubChem BioAssay (NCI):
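A five-concentration, 48-hour dose response in 96-well plates underlies each endpoint, interpolated linearly between surrounding concentrations. The concentration for 50% growth inhibition is given as GI50. TGI: concentration producing complete growth inhibition.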

Legend:
Test in all cases: DTP human tumour cell line panel, 48 h
HCT-15 colon = tested on: HCT-15 colon
RXF 393 renal = tested on: RXF 393 renal
DU-145 prostate = tested on: DU-145 prostate
SK-OV-3 ovarian = tested on: SK-OV-3 ovarian
COLO 205 colon = tested on: COLO 205 colon
HT29 colon = tested on: HT29 colon
NCI-H23 lung = tested on: NCI-H23 lung
SF-539 CNS = tested on: SF-539 CNS
MALME-3M melanoma = tested on: MALME-3M melanoma
KM12 colon = tested on: KM12 colon
OVCAR-3 ovarian = tested on: OVCAR-3 ovarian
MOLT-4 leukemia = tested on: MOLT-4 leukemia
A498 renal = tested on: A498 renal
HOP-92 NSCLC = tested on: HOP-92 NSCLC
SNB-19 CNS = tested on: SNB-19 CNS
ACHN renal = tested on: ACHN renal
MDA-MB-231 breast = tested on: MDA-MB-231 breast
SK-MEL-28 melanoma = tested on: SK-MEL-28 melanoma
SR leukemia = tested on: SR leukemia
NCI-H460 lung = tested on: NCI-H460 lung
HL-60(TB) leukemia = tested on: HL-60(TB) leukemia
RPMI-8226 leukemia = tested on: RPMI-8226 leukemia
NCI/ADR-RES ovarian = tested on: NCI/ADR-RES ovarian
SW-620 colon = tested on: SW-620 colon
PC-3 prostate = tested on: PC-3 prostate
SNB-75 CNS = tested on: SNB-75 CNS
HOP-62 NSCLC = tested on: HOP-62 NSCLC
LOX IMVI melanoma = tested on: LOX IMVI melanoma
TK-10 renal = tested on: TK-10 renal
UO-31 renal = tested on: UO-31 renal
U251 CNS = tested on: U251 CNS
EKVX NSCLC = tested on: EKVX NSCLC
786-0 renal = tested on: 786-0 renal
K-562 leukemia = tested on: K-562 leukemia
OVCAR-4 ovarian = tested on: OVCAR-4 ovarian
SF-295 CNS = tested on: SF-295 CNS
T-47D breast = tested on: T-47D breast
BT-549 breast = tested on: BT-549 breast
UACC-257 melanoma = tested on: UACC-257 melanoma
A549 NSCLC = tested on: A549 NSCLC
CAKI-1 renal = tested on: CAKI-1 renal
NCI-H226 lung = tested on: NCI-H226 lung
OVCAR-5 ovarian = tested on: OVCAR-5 ovarian
HS 578T breast = tested on: HS 578T breast
SF-268 CNS = tested on: SF-268 CNS
UACC-62 melanoma = tested on: UACC-62 melanoma
MCF7 breast = tested on: MCF7 breast
OVCAR-8 ovarian = tested on: OVCAR-8 ovarian
CCRF-CEM leukemia = tested on: CCRF-CEM leukemia
MDA-MB-435 = tested on: MDA-MB-435
NCI-H522 lung = tested on: NCI-H522 lung
SN12C renal = tested on: SN12C renal
SK-MEL-5 melanoma = tested on: SK-MEL-5 melanoma
SK-MEL-2 melanoma = tested on: SK-MEL-2 melanoma
IGROV1 ovarian = tested on: IGROV1 ovarian

O=Nc1c(-c2c(O)[nH]c3ccc(Br)cc23)[nH]c2ccccc12 gave a GI50 (HCT-15 colon) of 2.72 µM, a TGI (HCT-15 colon) of 8.4 µM and a GI50 (RXF 393 renal) of 3.62 µM. For the same compound, the TGI (RXF 393 renal) was greater than 100 µM, the GI50 (DU-145 prostate) was 3.01 µM and the TGI (DU-145 prostate) was 11.8 µM. For the same compound, the GI50 (SK-OV-3 ovarian) was 5.22 µM, the TGI (SK-OV-3 ovarian) was 77.3 µM and the GI50 (COLO 205 colon) was 2.82 µM. It also gave a TGI (COLO 205 colon) of 13.9 µM, a GI50 (HT29 colon) of 8.3 µM and a TGI (HT29 colon) greater than 100 µM. It also gave a GI50 (NCI-H23 lung) of 3.13 µM, a TGI (NCI-H23 lung) of 12.8 µM and a GI50 (SF-539 CNS) of 2.62 µM. For the same compound, the TGI (SF-539 CNS) was 7.47 µM, the GI50 (MALME-3M melanoma) was 21.8 µM and the TGI (MALME-3M melanoma) was greater than 100 µM. The GI50 (KM12 colon) was 1.14 µM, the TGI (KM12 colon) was 5.2 µM and the GI50 (OVCAR-3 ovarian) was 4.03 µM. For the same compound, the TGI (OVCAR-3 ovarian) was 67.3 µM, the GI50 (MOLT-4 leukemia) was 2.93 µM and the TGI (MOLT-4 leukemia) was 7.21 µM. The GI50 (A498 renal) was 3.7 µM, the TGI (A498 renal) was 8.07 µM and the GI50 (HOP-92 NSCLC) was 6.25 µM. The TGI (HOP-92 NSCLC) was 45.1 µM, the GI50 (SNB-19 CNS) was 7.99 µM and the TGI (SNB-19 CNS) was greater than 100 µM. For the same compound, the GI50 (ACHN renal) was 2.25 µM, the TGI (ACHN renal) was 7.69 µM and the GI50 (MDA-MB-231 breast) was 3.55 µM. The TGI (MDA-MB-231 breast) was 21.8 µM, the GI50 (SK-MEL-28 melanoma) was 9.12 µM and the TGI (SK-MEL-28 melanoma) was greater than 100 µM. It also gave a GI50 (SR leukemia) of 2.12 µM, a TGI (SR leukemia) of 5.62 µM and a GI50 (NCI-H460 lung) of 2.4 µM. The TGI (NCI-H460 lung) was 5.99 µM, the GI50 (HL-60(TB) leukemia) was 3.38 µM and the TGI (HL-60(TB) leukemia) was 6.22 µM. For the same compound, the GI50 (RPMI-8226 leukemia) was 3.56 µM, the TGI (RPMI-8226 leukemia) was 25.5 µM and the GI50 (NCI/ADR-RES ovarian) was 4.24 µM. It also gave a TGI (NCI/ADR-RES ovarian) of 63.4 µM, a GI50 (SW-620 colon) of 3.64 µM and a TGI (SW-620 colon) of 9.41 µM. The GI50 (PC-3 prostate) was 3.38 µM, the TGI (PC-3 prostate) was 78.9 µM and the GI50 (SNB-75 CNS) was 7.58 µM. It also gave a TGI (SNB-75 CNS) of 28.3 µM, a GI50 (HOP-62 NSCLC) of 4.4 µM and a TGI (HOP-62 NSCLC) of 13.8 µM. The GI50 (LOX IMVI melanoma) was 2.18 µM, the TGI (LOX IMVI melanoma) was 11 µM and the GI50 (TK-10 renal) was 3.77 µM. It also gave a TGI (TK-10 renal) greater than 100 µM, a GI50 (UO-31 renal) of 2.81 µM and a TGI (UO-31 renal) greater than 100 µM. It also gave a GI50 (U251 CNS) of 4.83 µM, a TGI (U251 CNS) of 23.1 µM and a GI50 (EKVX NSCLC) of 3 µM. The TGI (EKVX NSCLC) was 15.5 µM, the GI50 (786-0 renal) was 3.25 µM and the TGI (786-0 renal) was 14.1 µM. It also gave a GI50 (K-562 leukemia) of 2 µM, a TGI (K-562 leukemia) of 4.87 µM and a GI50 (OVCAR-4 ovarian) of 5.94 µM. The TGI (OVCAR-4 ovarian) was 74.4 µM, the GI50 (SF-295 CNS) was 9.8 µM and the TGI (SF-295 CNS) was 54.1 µM. For the same compound, the GI50 (T-47D breast) was 12.1 µM, the TGI (T-47D breast) was greater than 100 µM and the GI50 (BT-549 breast) was 4.57 µM. For the same compound, the TGI (BT-549 breast) was 20.2 µM, the GI50 (UACC-257 melanoma) was 15 µM and the TGI (UACC-257 melanoma) was greater than 100 µM. It also gave a GI50 (A549 NSCLC) of 3.21 µM, a TGI (A549 NSCLC) greater than 100 µM and a GI50 (CAKI-1 renal) of 3.44 µM. It also gave a TGI (CAKI-1 renal) greater than 100 µM, a GI50 (NCI-H226 lung) of 3.89 µM and a TGI (NCI-H226 lung) of 16.7 µM. For the same compound, the GI50 (OVCAR-5 ovarian) was 5.14 µM, the TGI (OVCAR-5 ovarian) was 16.9 µM and the GI50 (HS 578T breast) was 3.03 µM. It also gave a TGI (HS 578T breast) of 10.2 µM, a GI50 (SF-268 CNS) of 3.75 µM and a TGI (SF-268 CNS) of 22.6 µM. It also gave a GI50 (UACC-62 melanoma) of 4.96 µM, a TGI (UACC-62 melanoma) of 15.1 µM and a GI50 (MCF7 breast) of 2.21 µM. The TGI (MCF7 breast) was 8.48 µM, the GI50 (OVCAR-8 ovarian) was 4.29 µM and the TGI (OVCAR-8 ovarian) was greater than 100 µM. For the same compound, the GI50 (CCRF-CEM leukemia) was 3.22 µM, the TGI (CCRF-CEM leukemia) was 16.8 µM and the GI50 (MDA-MB-435) was 5.47 µM. For the same compound, the TGI (MDA-MB-435) was greater than 100 µM, the GI50 (NCI-H522 lung) was 3.35 µM and the TGI (NCI-H522 lung) was 47.6 µM. For the same compound, the GI50 (SN12C renal) was 4.09 µM, the TGI (SN12C renal) was greater than 100 µM and the GI50 (SK-MEL-5 melanoma) was 1.24 µM. It also gave a TGI (SK-MEL-5 melanoma) of 2.53 µM, a GI50 (SK-MEL-2 melanoma) of 2.65 µM and a TGI (SK-MEL-2 melanoma) greater than 100 µM. It also gave a GI50 (IGROV1 ovarian) of 2.5 µM and a TGI (IGROV1 ovarian) greater than 100 µM.
